Patent US9377453B2, “Systems and methods for detection of cellular stress” (RAMOT AT TEL AVIV UNIVERSITY LTD., priority 2010, dated 2016)
Entries after “also recorded” stand apart in the source; their conditions may differ.

Tested on: CHO cells
Test: Subcellular localization of Cy3-labeled tRNA in CHO cells treated with puromycin
Format: cell-based, Chinese hamster
Conditions: puromycin 1 mM, 0.5 h, 7 h post transfection; treated vs untreated CHO cells
Experimental: Chinese hamster ovary cells (CHO-Ki) were maintained in nutrient mixture F-12 (Ham) supplemented with 10% (v/v) fetal calf serum, 5 mM L-glutamine and antibiotics (all from Biological Industries).
Transfection—Cells were seeded in the day preceding the transfection (1.5×10^5 cells, 12 mm coverslips, in 24-well plates). Transfection was with 3 μg of yeast labeled-bulk tRNA (Interferin™, polyplus-transfection, according to manufacture's instructions). For DNA transfection (pSuper-retro-GFP), 9×10^4 cells/well were transfected with 1 μg DNA (TransIT-LT1 transfection reagent, according to manufacture's protocol). The following day, cells were re-transfected with labeled tRNA as described above.
Quantitative image analysis—For quantitative analysis of spatial distribution of the labeled tRNA and additional cellular markers, the entire cell volume was imaged by spinning disk confocal microscopy (0.15 μm between planes of the z-stack) with a 100× lens and 1×1 “on chip binning” yielding a pixel size of 100×100 nm; and deconvolved with the constrained iterative algorithm of Slidebook™ which employs an experimentally measured point spread function (PSF). […]

Q: `COc1ccc(C[C@H](N)C(=O)N[C@H]2[C@@H](O)[C@H](n3cnc4c(N(C)C)ncnc43)O[C@@H]2CO)cc1` [puromycin] was tested. Which “Nuclear localization of labeled tRNA (tRNA signal co-localizing with Hoechst signal)” value did it give?
A: The value was “marked accumulation of tRNA in the nucleus; also recorded: increase in nuclear localization of labeled tRNA”.
